# The source made the active and inactive calls. The calls are words filed in the database; no cut-off is given here.
# Columns and labels:
# [1] = Binding affinity to 5'-FAM-pre-miR-17 (unknown origin) after 4 hrs by fluorescence assay
# [2] = Binding affinity to 5'-FAM-pre-miR-373 (unknown origin) after 4 hrs by fluorescence assay
# [3] = Binding affinity to 5'-FAM-pre-miR-372 (unknown origin) after 4 hrs by fluorescence assay
# [4] = Binding affinity to 5'-FAM-pre-miR-372 (unknown origin) after 4 hrs by fluorescence assay in presence of 100-fold excess of Escherichia coli tRNA
# [5] = Inhibition of pre-miR-17 (unknown origin) cleavage assessed as reduction of oncogenic microRNAs biogenesis by measuring fluorescence every minute for 5 hrs using 5'-FAM,3'-dabcyl-pre-miRNA beacons by FRET assay in presence of recombinant Dicer
# [6] = Inhibition of pre-miR-372 (unknown origin) cleavage assessed as reduction of oncogenic microRNAs biogenesis at 200 uM by measuring fluorescence every minute for 5 hrs using 5'-FAM,3'-dabcyl-pre-miRNA beacons by FRET assay in presence of recombinant Dicer
# [7] = Ratio of Kd for 5'-FAM-pre-miR-372 (unknown origin) in presence of 100-fold excess of 15-mer DNA to Kd for 5'-FAM-pre-miR-372 (unknown origin)
# [8] = Binding affinity to 5'-FAM-pre-miR-372 (unknown origin) after 4 hrs by fluorescence assay in presence of 100-fold excess of 15-mer DNA
# [9] = Ratio of Kd for 5'-FAM-pre-miR-372 (unknown origin) in presence of 100-fold excess of Escherichia coli tRNA to Kd for 5'-FAM-pre-miR-372 (unknown origin)
# [10] = Inhibition of pre-miR-17 (unknown origin) cleavage assessed as reduction of oncogenic microRNAs biogenesis at 200 uM by measuring fluorescence every minute for 5 hrs using 5'-FAM,3'-dabcyl-pre-miRNA beacons by FRET assay in presence of recombinant Dicer
# [11] = Inhibition of pre-miR-373 (unknown origin) cleavage assessed as reduction of oncogenic microRNAs biogenesis at 200 uM by measuring fluorescence every minute for 5 hrs using 5'-FAM,3'-dabcyl-pre-miRNA beacons by FRET assay in presence of recombinant Dicer
# [12] = Inhibition of pre-miR-21 (unknown origin) cleavage assessed as reduction of oncogenic microRNAs biogenesis at 200 uM by measuring fluorescence every minute for 5 hrs using 5'-FAM,3'-dabcyl-pre-miRNA beacons by FRET assay in presence of recombinant Dicer
# [13] = Binding affinity to 5'-FAM-pre-miR-372 (unknown origin) assessed as change in total free energy by thermodynamic assay
# [14] = Inhibition of pre-miR-21 (unknown origin) cleavage assessed as reduction of oncogenic microRNAs biogenesis by measuring fluorescence every minute for 5 hrs using 5'-FAM,3'-dabcyl-pre-miRNA beacons by FRET assay in presence of recombinant Dicer
# [15] = Inhibition of pre-miR-372 (unknown origin) cleavage assessed as reduction of oncogenic microRNAs biogenesis by measuring fluorescence every minute for 5 hrs using 5'-FAM,3'-dabcyl-pre-miRNA beacons by FRET assay in presence of recombinant Dicer
# [16] = Inhibition of pre-miR-373 (unknown origin) cleavage assessed as reduction of oncogenic microRNAs biogenesis by measuring fluorescence every minute for 5 hrs using 5'-FAM,3'-dabcyl-pre-miRNA beacons by FRET assay in presence of recombinant Dicer
compound,measurement,setting,value
O=C(N[C@H](CO)[C@H](O)c1ccc([N+](=O)[O-])cc1)C(Cl)Cl [CHLORAMPHENICOL],Kd,[1],Not Active
same,Kd,[2],Not Active
same,Kd,[3],Not Active
CN(C)[C@@H]1C(O)=C(C(N)=O)C(=O)[C@@]2(O)C(O)=C3C(=O)c4c(O)cccc4[C@@](C)(O)[C@H]3[C@H](O)[C@@H]12 [OXYTETRACYCLINE],Kd,[4],8.01 µM
same,IC50,[5],392 µM
same,Kd,[1]; read-out: Kd,6.22 µM
same,inhibition,[6],10%
same,Ratio,[7],1.6
same,Kd,[2]; read-out: Kd,5.2 µM
same,Kd,[8],10.2 µM
same,Ratio,[9],1.3
same,inhibition,[10],10%
same,inhibition,[11],10%
same,inhibition,[12],10%
same,Activity,[13],90%
same,Kd,[3]; read-out: Kd,6.15 µM
same,IC50,[14],613 µM
same,IC50,[15],657 µM
same,IC50,[16],491 µM
CN[C@@H]1[C@H](O[C@H]2[C@H](O[C@H]3[C@H](O)[C@@H](O)[C@H](N=C(N)N)[C@@H](O)[C@@H]3N=C(N)N)O[C@@H](C)[C@]2(O)C=O)O[C@@H](CO)[C@H](O)[C@H]1O [STREPTOMYCIN],Kd,[4],61.1 µM
same,Kd,[1]; read-out: Kd,18.5 µM
same,inhibition,[6],inactive
same,Ratio,[7],1.8
same,Kd,[2]; read-out: Kd,45 µM
same,Kd,[8],48.2 µM
same,Ratio,[9],2
same,inhibition,[10],inactive
same,inhibition,[11],inactive
same,inhibition,[12],inactive
same,Activity,[13],47%
same,Kd,[3]; read-out: Kd,26.8 µM
same,IC50,[14],688 µM
same,IC50,[15],678 µM
CN[C@@H]1[C@@H](O[C@H]2O[C@H](CO)[C@@H](N)[C@H](O)[C@H]2O)OC2C[C@@H](N)[C@@H](O[C@H]3[C@H](O)[C@@H](O)[C@H](N)C[C@@H]3N)OC2[C@@H]1O (some centres undefined) [APRAMYCIN],Kd,[4],9.05 µM
same,Kd,[1]; read-out: Kd,1.03 µM
same,inhibition,[6],60%
same,Ratio,[7],2.2
same,Kd,[2]; read-out: Kd,4.2 µM
same,Kd,[8],6.55 µM
same,Ratio,[9],3
same,inhibition,[10],60%
same,inhibition,[11],60%
same,inhibition,[12],60%
same,Activity,[13],72%
same,Kd,[3]; read-out: Kd,2.99 µM
same,IC50,[14],170 µM
same,IC50,[15],162 µM
same,IC50,[16],335 µM
NC[C@H]1O[C@H](O[C@H]2[C@H](O)[C@@H](O)[C@H](N)C[C@@H]2N)[C@H](N)[C@@H](O)[C@@H]1O [NEAMINE],Kd,[4],394 µM
same,Kd,[1]; read-out: Kd,24.9 µM
same,inhibition,[6],10%
same,Ratio,[7],1.5
same,Kd,[2]; read-out: Kd,187 µM
same,Kd,[8],248 µM
same,Ratio,[9],2.5
same,inhibition,[10],10%
same,inhibition,[11],10%
same,inhibition,[12],10%
same,Activity,[13],72%
same,Kd,[3]; read-out: Kd,160 µM
same,IC50,[15],298 µM
same,IC50,[16],751 µM
CC[C@H]1OC(=O)[C@H](C)[C@@H](O[C@H]2C[C@@](C)(OC)[C@@H](O)[C@H](C)O2)[C@H](C)[C@@H](O[C@@H]2O[C@H](C)C[C@H](N(C)C)[C@H]2O)[C@](C)(O)C[C@@H](C)C(=O)[C@H](C)[C@@H](O)[C@]1(C)O [ERYTHROMYCIN],Kd,[4],8.73 µM
same,Kd,[1]; read-out: Kd,27.4 µM
same,Ratio,[7],5
same,Kd,[2]; read-out: Kd,6.51 µM
same,Kd,[8],30.7 µM
same,Ratio,[9],1.4
same,Kd,[3]; read-out: Kd,6.11 µM
CCC[C@@H]1C[C@@H](C(=O)N[C@@H]([C@H]2O[C@H](SC)[C@H](O)[C@@H](O)[C@H]2O)[C@@H](C)O)N(C)C1 [LINCOMYCIN],Kd,[1],Not Active
same,Kd,[2],Not Active
same,Kd,[3],Not Active
GENTAMICIN [listing 1 of 2 here],Kd,[4],4.2 µM
same,IC50,[5],540 µM
same,Kd,[1]; read-out: Kd,4.98 µM
same,Kd,[2]; read-out: Kd,6.64 µM
same,Kd,[8],8.1 µM
same,Kd,[3]; read-out: Kd,3.67 µM
same,IC50,[14],242 µM
same,IC50,[15],667 µM
same,IC50,[16],159 µM
NC[C@H]1O[C@H](O[C@H]2[C@H](O)[C@@H](O[C@H]3O[C@H](CO)[C@@H](O)[C@H](N)[C@H]3O)[C@H](N)C[C@@H]2N)[C@H](N)[C@@H](O)[C@@H]1O [BEKANAMYCIN],Kd,[1],Not Active
same,inhibition,[6],inactive
same,Kd,[2],Not Active
same,inhibition,[10],inactive
same,inhibition,[11],inactive
same,inhibition,[12],inactive
same,Kd,[3],Not Active
CN[C@@H]1[C@H](O)[C@H](NC)[C@H]2O[C@@]3(O)C(=O)C[C@@H](C)O[C@H]3O[C@@H]2[C@H]1O [SPECTINOMYCIN],Kd,[1],Not Active
same,inhibition,[6],inactive
same,Kd,[2],Not Active
same,inhibition,[10],inactive
same,inhibition,[11],inactive
same,inhibition,[12],inactive
same,Kd,[3],Not Active
NC[C@@H]1O[C@H](O[C@H]2[C@@H](O)[C@H](O[C@@H]3[C@@H](O)[C@H](N)C[C@H](N)[C@H]3O[C@H]3O[C@H](CO)[C@@H](O)[C@H](O)[C@H]3N)O[C@@H]2CO)[C@H](N)[C@@H](O)[C@@H]1O [PAROMOMYCIN],Kd,[4],133 µM
same,Kd,[1]; read-out: Kd,44 µM
same,inhibition,[6],10%
same,Ratio,[7],1.2
same,Kd,[2]; read-out: Kd,91.2 µM
same,Kd,[8],167 µM
same,Ratio,[9],1
same,inhibition,[10],10%
same,inhibition,[11],10%
same,inhibition,[12],10%
same,Activity,[13],61%
same,Kd,[3]; read-out: Kd,138 µM
same,IC50,[14],543 µM
same,IC50,[15],773 µM
same,IC50,[16],345 µM
GENTAMICIN [listing 2 of 2 here],inhibition,[6],10%
same,Ratio,[7],4
same,Ratio,[9],1.1
same,inhibition,[10],10%
same,inhibition,[11],10%
same,inhibition,[12],10%
same,Activity,[13],63%
COc1ccc(C[C@H](N)C(=O)N[C@H]2[C@@H](O)[C@H](n3cnc4c(N(C)C)ncnc43)O[C@@H]2CO)cc1 [PUROMYCIN],Kd,[1]; read-out: Kd,5.85 µM
same,Kd,[2]; read-out: Kd,12.7 µM
same,Kd,[3]; read-out: Kd,11.8 µM
C[C@H]1c2cccc(O)c2C(=O)C2=C(O)[C@]3(O)C(=O)C(C(N)=O)=C(O)[C@@H](N(C)C)[C@@H]3[C@@H](O)[C@@H]21 [DOXYCYCLINE],Kd,[4],2 µM
same,IC50,[5],380 µM
same,Kd,[1]; read-out: Kd,0.94 µM
same,inhibition,[6],20%
same,Ratio,[7],1.8
same,Kd,[2]; read-out: Kd,1.42 µM
same,Kd,[8],1.62 µM
same,Ratio,[9],2
same,inhibition,[10],20%
same,inhibition,[11],20%
same,inhibition,[12],20%
same,Activity,[13],78%
same,Kd,[3]; read-out: Kd,0.908 µM
same,IC50,[14],555 µM
same,IC50,[15],567 µM
same,IC50,[16],366 µM
CCC[C@@H]1C[C@@H](C(=O)N[C@@H]([C@H]2O[C@H](SC)[C@H](O)[C@@H](O)[C@H]2O)[C@H](C)Cl)N(C)C1 [CLINDAMYCIN],Kd,[1],Not Active
same,Kd,[2],Not Active
same,Kd,[3],Not Active
CC[C@H]1OC(=O)[C@H](C)[C@@H](O[C@H]2C[C@@](C)(OC)[C@@H](O)[C@H](C)O2)[C@H](C)[C@@H](O[C@@H]2O[C@H](C)C[C@H](N(C)C)[C@H]2O)[C@](C)(O)C[C@@H](C)CN(C)[C@H](C)[C@@H](O)[C@]1(C)O [AZITHROMYCIN],Kd,[4],1.9 µM
same,Kd,[1]; read-out: Kd,1.63 µM
same,Ratio,[7],4.5
same,Kd,[2]; read-out: Kd,1.41 µM
same,Kd,[8],7.43 µM
same,Ratio,[9],1.2
same,Kd,[3]; read-out: Kd,1.62 µM
CC(=O)NC[C@H]1CN(c2ccc(N3CCOCC3)c(F)c2)C(=O)O1 [LINEZOLID],Kd,[1],Not Active
same,Kd,[2],Not Active
same,Kd,[3],Not Active

# From ChEMBL document CHEMBL3603759, “Ribosome-targeting antibiotics as inhibitors of oncogenic microRNAs biogenesis: Old scaffolds for new perspectives in RNA targeting” (Bioorg Med Chem, 2015)
